Test results as given in US20160015770A1, “COMPOSITIONS FOR TREATMENT OF RETINAL DETACHMENT” (THE REGENTS OF THE UNIVERSITY OF MICHIGAN, priority 2013, published 2016).

Target: T1, calpain 1 (Mus musculus, UniProt O35350)
T1 construct: endogenous in cells; host or cells: 661W mouse photoreceptor cell line
T1 sequence (O35350 1-713): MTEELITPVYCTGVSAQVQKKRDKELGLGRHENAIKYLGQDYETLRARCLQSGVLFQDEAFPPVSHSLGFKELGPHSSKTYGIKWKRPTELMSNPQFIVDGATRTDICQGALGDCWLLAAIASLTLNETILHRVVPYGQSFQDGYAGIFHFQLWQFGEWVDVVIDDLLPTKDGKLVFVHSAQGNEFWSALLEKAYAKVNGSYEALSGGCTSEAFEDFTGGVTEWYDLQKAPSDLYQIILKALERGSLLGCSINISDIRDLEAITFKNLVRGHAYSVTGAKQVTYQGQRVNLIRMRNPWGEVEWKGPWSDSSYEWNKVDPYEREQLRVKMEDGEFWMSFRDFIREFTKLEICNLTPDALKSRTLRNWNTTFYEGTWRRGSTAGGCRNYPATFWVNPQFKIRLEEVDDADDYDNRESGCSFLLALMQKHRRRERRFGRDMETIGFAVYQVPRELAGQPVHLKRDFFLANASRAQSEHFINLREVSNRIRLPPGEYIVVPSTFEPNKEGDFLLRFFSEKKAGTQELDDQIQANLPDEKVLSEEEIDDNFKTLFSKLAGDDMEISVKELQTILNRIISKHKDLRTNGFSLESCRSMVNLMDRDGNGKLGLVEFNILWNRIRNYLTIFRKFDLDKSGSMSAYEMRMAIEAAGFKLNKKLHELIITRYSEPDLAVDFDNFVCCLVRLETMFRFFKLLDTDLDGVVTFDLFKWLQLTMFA
T1 sequence (O88456 1-268 partner): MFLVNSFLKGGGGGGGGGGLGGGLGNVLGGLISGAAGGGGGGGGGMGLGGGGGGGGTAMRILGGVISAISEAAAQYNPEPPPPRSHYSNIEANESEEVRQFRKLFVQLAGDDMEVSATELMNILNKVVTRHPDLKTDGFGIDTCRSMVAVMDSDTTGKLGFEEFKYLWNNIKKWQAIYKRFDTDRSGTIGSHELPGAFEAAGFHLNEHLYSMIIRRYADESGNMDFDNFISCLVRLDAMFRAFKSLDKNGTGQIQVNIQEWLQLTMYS
Assay: Western blot of calpain 1 specific cleaved alpha-spectrin in 661W cells treated with Fas activating antibody
Format: cell-based
Conditions: 24 hours
Method: The 661W photoreceptor cell line was generously provided by Dr. Muayyad Al-Ubaidi (Department of Cell Biology, University of Oklahoma Health Sciences Center, Oklahoma City, Okla.). The 661W cell line was maintained in Dulbecco's modified Eagle's medium containing 10% fetal bovine serum, 300 mg/L glutamine, 32 mg/L putrescine, 40 μL/L β-mercaptoethanol, and 40 μg/L of both hydrocortisone 21-hemisuccinate and progesterone. The media also contained penicillin (90 units/mL) and streptomycin (0.09 mg/mL). Cells were grown at 37° C. in a humidified atmosphere of 5% CO2 and 95% air.
Retinas from experimental eyes with detachment (detached portion of retina only) and control eyes without detachment were dissected from the RPE-choroid, homogenized, and lysed in buffer containing 10 mM HEPES (pH 7.6), 0.5% IgEPal, 42 mM KCl, 1 mM phenylmethylsulfonyl fluoride, 1 mM EDTA, 1 mM EGTA, 1 mM dithiothreitol, 5 mM MgCl2, and one tablet of protease inhibitors per 10 mL buffer (Complete Mini; Roche Diagnostics GmbH, Madison, Wis.). 661W cells were plated at 150,000 cells per well in six-well culture dishes in growth media. After 24 hours, the cells were washed one time with warmed PBS solution and then placed in growth media without fetal bovine serum. Depending on experimental conditions, 500 ng/mL Fas activating antibody (BD Biosciences, San Jose, Calif.) and various calpain inhibitors including MDG-28170 (Sigma, St. Louis, Mo.), MG-101 (Sigma, St. Louis, Mo.), calpeptin (Santa Cruz Biotechnology, Santa Cruz, Calif.) or equal volume of DMSO was added. Calpain inhibitors were added 1 hour prior to the addition of Fas activating antibody. The cells were incubated for various lengths of time and then lysed and homogenized in lysis buffer. The homogenates were incubated on ice and centrifuged at 22,000 g at 4° C. for 60 minutes. The protein concentration of the supernatant was then determined (DC Protein Assay kit; Bio-Rad Laboratories, Hercules, Calif.). The protein samples were separated on SDS-polyacrylamide gels (Tris-HCl Ready Gels; Bio-Rad Laboratories). After electrophoretic separation, the proteins were transferred onto polyvinylidene fluoride membranes (Immobilon-P; Millipore, Billerica, Mass.). Membranes were then immunoblotted with antibodies according to the manufacturer's instructions. The following antibodies were used: LC3b (Cell Signaling, Beverly, Mass.), Atg5 (Abgent, San Diego, Calif.), Atg12 (Cell Signaling, Beverly, Mass.), calpain 1 (Cell Signaling, Beverly, Mass.), alpha-spectrin (Santa Cruz Biotechnology, Santa Cruz, Calif.), actin (Sigma, St. Louis, Mo.), and GAPDH (Abcam, Cambridge, Mass.).
After determining calpain 1 levels, it was looked to correlate this with calpain activity. […]

relative size of the effect on cleaved alpha-spectrin among the calpain inhibitors (Fas activating antibody, two concentrations): largest effect | cleaved alpha-spectrin levels (inhibitor added 1 hour before Fas activating antibody, compared to Fas activation alone): decreased
SMILES: CCCC[C@@H](C=O)NC(=O)[C@H](CC(C)C)NC(=O)OCc1ccccc1 [calpeptin]
